# Where “and” joins values, the source holds several entries; their conditions need not be identical. Equal values may be shown once.
# Tests used:
# [1] = Continuous Ketone Meter (CKM) monitoring of body ketone levels and deep sleep; type: in vivo; conditions: 5 grams consumed 45 minutes prior to bedtime
# Excerpt: FIG. 12 is a graphical illustration of continuous monitoring of body ketone levels resulting in improved deep sleep time due to enhanced D-BHB levels according to the claimed invention. It is noteworthy that consumption of even small amounts of free D-BetaHydroxyButyric Acid can give rise to therapeutic ketosis levels as measured by Continuous Ketone Meter (CKM). […] While free D-BetaHydroxyButyric Acid is not a sedative, even small amounts can greatly improve deep sleep quantity and quality. It is an intended and foreseeable embodiment application to increase deep sleep with free D-BetaHydroxyButyric Acid with the aim of guarding against sepsis, improving hospital recovery and enhanced resiliency.
# [2] = Blood ketone levels by Abbott blood test strip after oral free D-BHB; type: in vivo, human
# Excerpt: FIG. 9 is a graphical illustration of D-BHB exogenous ketone blood levels. The above Abbot blood ketone meter evidenced by Abbott blood test strip depicts the rapid rise in blood ketone levels from 0.1 mmol/L (absence of ketosis) to 2.7 mmol/L (ketosis) after oral bolus administration of 15 grams of bioidentical free D-BetaHydroxyButyric Acid. The ketone levels depicted are attained in the absence of a salt as well as without ester bonds. It is the free acid D-BHB exogenously administered which is bio-identical to the endogenous D-BHB free acid generated by the human body. The bioidentical ketone body D-BHB is first and foremost an energy source, which is directly and preferentially metabolized by the brain. D-BHB is also active as a signaling mechanism and neuro-inflammation reduction agent, resulting in broad and beneficial brain bioenergy related benefits.
# FIG. 10 is a graphical illustration of D-BHB exogenous ketone blood levels. FIG. 10 details rapid ketosis within 45 minutes confirmed by Abbott blood test strip after 10 g D-BHB with palatability agent administered by oral drink. Blood ketone levels document rise from 0.2 mmol/L to 1.8 mmol/L and 0.6 mmol/L to 1.9 mmol/L in a variety of test subjects. FIG. 10 reinforces the fact that supplementation by utilizing free D only BetaHydroxyButyric Acid without ketone salt or ketone ester is a reliable, reproduceable method and system for rapid ketone level increase for stroke recovery and maintenance. While amounts of free D only BetaHydroxyButyric Acid taken for stroke effects may vary, it is an anticipated preferred embodiment that levels between 5 and 30 grams of D only BetaHydroxyButyric Acid are taken as needed for optimum recovery. Alternate embodiments may include lower or higher amounts, however, experimental evidence has confirmed optimal administration in this range for a wide variety of other applications.
# [3] = Continuous glucose monitoring (Abbot Libre CGM) with carbohydrate challenge; type: in vivo; conditions: 10 g administered 45 minutes before 50 g carbohydrate ingestion; versus unsupplemented ingestion
# Excerpt: FIG. 11 is a graphical illustration of continuous monitoring of body glucose levels. FIG. 11 depicts continuous glucose monitoring levels with carbohydrate challenge documented by Abbot Libre Continuous Glucose Monitoring (CGM) device. In this illustrative embodiment, glucose levels from a 50 g carbohydrate ingestion are depicted unaided by free D-BetaHydroxyButyric Acid on the left and repeated the following day with two 50 g carbohydrate ingestions accompanied by 10 g free D-BetaHydroxyButyric Acid administered 45 minutes before the carbohydrate insult. […] As free D-BetaHydroxyButyric Acid can lower glucose while rapidly increasing ketone levels, it is believed that obtaining high ketones while lowering glucose will yield additional stroke recovery benefits for high glucose sensitive individuals suffering from sepsis and may be considered in lieu of insulin administration.
# [4] = compared with ketone salts; FIG. 5 literature data; cited from earlier work
# [5] = target: T1, NLRP3 inflammasome (Homo sapiens, UniProt Q96P20); conditions: independently of GPR109A binding or mitochondrial oxidation; cited from earlier work
# T1 construct: host or cells: macrophages
# T1 sequence (Q96P20 whole entry): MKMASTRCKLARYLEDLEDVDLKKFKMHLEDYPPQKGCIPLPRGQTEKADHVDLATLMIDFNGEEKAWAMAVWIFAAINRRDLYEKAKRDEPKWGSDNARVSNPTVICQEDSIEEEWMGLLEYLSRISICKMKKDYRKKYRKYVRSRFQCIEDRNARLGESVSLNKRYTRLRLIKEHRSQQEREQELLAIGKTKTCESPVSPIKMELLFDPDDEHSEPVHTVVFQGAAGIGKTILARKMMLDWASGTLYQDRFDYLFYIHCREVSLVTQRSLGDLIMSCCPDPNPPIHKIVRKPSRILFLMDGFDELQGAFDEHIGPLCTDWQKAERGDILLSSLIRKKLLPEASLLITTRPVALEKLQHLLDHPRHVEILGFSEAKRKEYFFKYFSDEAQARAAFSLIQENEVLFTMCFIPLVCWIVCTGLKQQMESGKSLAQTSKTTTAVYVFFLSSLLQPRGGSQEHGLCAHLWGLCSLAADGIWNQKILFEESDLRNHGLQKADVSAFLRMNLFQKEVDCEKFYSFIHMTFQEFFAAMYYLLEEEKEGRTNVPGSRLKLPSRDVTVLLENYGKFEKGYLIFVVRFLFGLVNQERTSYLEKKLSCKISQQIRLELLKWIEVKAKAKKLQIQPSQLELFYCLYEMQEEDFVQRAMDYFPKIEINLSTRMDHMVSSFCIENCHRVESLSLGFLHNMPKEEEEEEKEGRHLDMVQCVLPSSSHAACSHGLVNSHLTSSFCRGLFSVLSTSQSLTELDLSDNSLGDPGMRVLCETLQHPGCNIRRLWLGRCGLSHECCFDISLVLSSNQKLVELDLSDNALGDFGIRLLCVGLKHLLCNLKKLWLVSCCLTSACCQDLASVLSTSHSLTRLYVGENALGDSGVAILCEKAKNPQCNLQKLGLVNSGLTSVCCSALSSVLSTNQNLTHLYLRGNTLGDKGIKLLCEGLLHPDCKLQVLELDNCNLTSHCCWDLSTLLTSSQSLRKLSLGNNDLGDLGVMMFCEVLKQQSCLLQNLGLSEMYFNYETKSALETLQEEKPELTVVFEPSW
# [6] = system: LPS-induced myocardial injury and cardiac dysfunction; conditions: mouse model; study utilized the synthetic ketone ester; cited from earlier work
structure (smiles),measurement,setting,value
"C[C@@H](O)CC(=O)O [D-BHB, D-β-HydroxyButyric Acid]",increase in ketone level (CKM),[1],1.5 mmol/L
same,quantity of deep sleep,[1],enhance the quantity of deep sleep obtained
same,time to ketosis,[2]; 10 g with palatability agent by oral drink,≤ 45 min
same,blood ketone levels after administration,"[2]; 10 g with palatability agent by oral drink, within 45 minutes, rise from 0.2 and 0.6 mmol/L respectively, different test subjects",1.8 mmol/L and 1.9 mmol/L
same,blood ketone levels after administration,"[2]; oral bolus of 15 grams, rise from 0.1 mmol/L (absence of ketosis)",2.7 mmol/L
same,glucose spike after carbohydrate ingestion,[3],the rapid glucose spike depicted in the unsupplemented ingestion is not found
"C[C@@H](O)CCOC(=O)C[C@@H](C)O [ketone ester, (R)-3-hydroxybutyl (R)-3-hydroxybutyrate]",ketone level response,[4],higher ketone level response
"CC(O)CC(=O)O (stereo not drawn) [β-OHB, β-Hydroxybutyrate]",effect on NLRP3 inflammasome in macrophages,[5],inhibits the NLRP3 inflammasome
same,effect on LPS-induced myocardial injury and cardiac dysfunction,[6],prevent LPS-induced myocardial injury and cardiac dysfunction
